Values of other authors, collected in US12370144B2, “Centanafadine pharmaceutical formulations, and methods of making and using same” (OTSUKA PHARMACEUTICAL CO., LTD., priority 2021, dated 2025).

Columns and labels:
[1] = target: norepinephrine reuptake transporter (NET) (Homo sapiens, UniProt P23975); conditions: triple reuptake inhibitor, rank of potency
[2] = not told
[3] = target: dopamine reuptake transporter (DAT) (Homo sapiens, UniProt Q01959); conditions: fraction of the potency towards NET
[4] = target: serotonin reuptake transporter (SERT) (Homo sapiens, UniProt P31645); conditions: fraction of the potency towards NET
serotonin reuptake transporter (SERT), sequence (P31645 whole entry, species assumed): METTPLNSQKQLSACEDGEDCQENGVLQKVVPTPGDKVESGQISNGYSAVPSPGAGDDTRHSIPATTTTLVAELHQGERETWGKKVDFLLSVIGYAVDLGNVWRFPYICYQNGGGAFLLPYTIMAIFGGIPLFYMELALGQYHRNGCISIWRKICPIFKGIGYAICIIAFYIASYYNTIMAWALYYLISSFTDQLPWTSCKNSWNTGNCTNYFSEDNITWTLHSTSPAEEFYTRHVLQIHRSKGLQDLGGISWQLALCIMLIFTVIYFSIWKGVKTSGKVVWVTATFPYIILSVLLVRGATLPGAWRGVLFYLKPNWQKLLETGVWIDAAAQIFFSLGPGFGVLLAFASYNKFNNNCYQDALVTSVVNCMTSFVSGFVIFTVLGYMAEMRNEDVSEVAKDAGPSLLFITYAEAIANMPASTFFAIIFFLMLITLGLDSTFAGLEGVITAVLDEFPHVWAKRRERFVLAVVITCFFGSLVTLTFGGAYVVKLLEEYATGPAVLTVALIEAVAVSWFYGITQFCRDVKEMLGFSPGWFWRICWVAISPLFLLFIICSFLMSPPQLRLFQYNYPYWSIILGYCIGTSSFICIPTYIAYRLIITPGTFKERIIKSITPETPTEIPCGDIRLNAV

dopamine reuptake transporter (DAT), sequence (Q01959 whole entry, species assumed): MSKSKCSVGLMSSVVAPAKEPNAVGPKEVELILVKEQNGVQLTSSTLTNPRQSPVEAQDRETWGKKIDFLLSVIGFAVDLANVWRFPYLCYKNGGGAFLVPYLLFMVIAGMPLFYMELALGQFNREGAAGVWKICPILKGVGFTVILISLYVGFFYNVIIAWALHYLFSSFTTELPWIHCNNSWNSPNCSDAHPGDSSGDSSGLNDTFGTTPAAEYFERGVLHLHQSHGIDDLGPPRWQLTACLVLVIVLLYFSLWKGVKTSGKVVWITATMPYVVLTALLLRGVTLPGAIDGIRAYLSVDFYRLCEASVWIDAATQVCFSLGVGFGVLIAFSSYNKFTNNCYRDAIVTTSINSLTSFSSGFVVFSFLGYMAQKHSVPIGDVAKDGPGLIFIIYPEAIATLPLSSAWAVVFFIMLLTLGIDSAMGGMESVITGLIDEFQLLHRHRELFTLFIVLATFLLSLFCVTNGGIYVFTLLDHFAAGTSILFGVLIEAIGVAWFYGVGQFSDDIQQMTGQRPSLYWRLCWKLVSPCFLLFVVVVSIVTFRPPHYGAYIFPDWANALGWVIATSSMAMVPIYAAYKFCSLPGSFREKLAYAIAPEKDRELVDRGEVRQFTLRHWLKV
norepinephrine reuptake transporter (NET), sequence (P23975 whole entry): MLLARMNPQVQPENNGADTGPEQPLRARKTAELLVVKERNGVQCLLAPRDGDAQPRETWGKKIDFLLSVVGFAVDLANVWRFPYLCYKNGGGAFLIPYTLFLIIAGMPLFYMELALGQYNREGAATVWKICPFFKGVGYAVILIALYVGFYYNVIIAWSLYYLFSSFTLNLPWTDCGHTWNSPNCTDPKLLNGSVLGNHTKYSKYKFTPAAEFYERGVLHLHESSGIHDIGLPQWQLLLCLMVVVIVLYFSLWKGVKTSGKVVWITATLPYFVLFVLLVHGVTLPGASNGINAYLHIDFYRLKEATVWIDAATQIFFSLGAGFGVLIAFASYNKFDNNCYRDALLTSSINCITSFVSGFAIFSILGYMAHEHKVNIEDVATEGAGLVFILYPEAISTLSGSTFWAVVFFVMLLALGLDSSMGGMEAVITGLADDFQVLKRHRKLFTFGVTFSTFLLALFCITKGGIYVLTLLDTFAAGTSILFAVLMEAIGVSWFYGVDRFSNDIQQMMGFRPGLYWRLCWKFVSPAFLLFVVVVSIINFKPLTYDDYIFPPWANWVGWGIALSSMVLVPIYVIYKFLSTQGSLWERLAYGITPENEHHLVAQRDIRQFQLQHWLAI

SMILES: c1ccc2cc([C@]34CNC[C@H]3C4)ccc2c1 [centanafadine, (1R,5S)-1-(naphthalen-2-yl)-3-azabicyclo[3.1.0]hexane]
- Potency towards NET [1]: most potency
- Permeability [2]: highly permeable
- Potency towards DAT relative to NET [3]: one-sixth
- Potency towards SERT relative to NET [4]: one-fourteenth
